Laboratory results: the supplement of paper PMC11061612

Experiments:
Assay in all cases: combination Emax (second highest fraction inhibited in the dose matrix, 72 h); higher = more inhibition; extreme values may be limits of the assay
[1] = system: 647-V (Bladder Carcinoma)
Procedure, shortened: (§1)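 After 24 hours at 37°C and 5% CO2 in 1536-well plates, cells in DMEM/F12 or RPMI plus 10% FBS received two-drug dose matrices for 72 hours. Viability came from CellTiter-Glo 2.0 luminescence and was scaled as inhibition, anchored at 0 by vehicle wells and at 1 by blank wells. Combination Emax is taken as the second-highest inhibition in the matrix, and Bliss excess as the observed combination effect less EA + EB − EA·EB, with EA and EB the single-agent effects.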

[2] = system: CAL-39 (Other Solid Carcinomas)
Procedure, shortened: as §1

[3] = system: D-283MED (Other Solid Carcinomas)
Procedure, shortened: as §1

[4] = system: DOK (Oral Cavity Carcinoma)
Procedure, shortened: as §1

[5] = system: EFM-192A (Breast Carcinoma)
Procedure, shortened: as §1

[6] = system: ETK-1 (Biliary Tract Carcinoma)
Procedure, shortened: as §1

EW-22 (Ewing's Sarcoma) = system: EW-22 (Ewing's Sarcoma)
Procedure, shortened: as §1

H4 (Low Grade Glioma) = system: H4 (Low Grade Glioma)
Procedure, shortened: as §1

HCC38 (Breast Carcinoma) = system: HCC38 (Breast Carcinoma)
Procedure, shortened: as §1

[7] = system: HCT-116 (Colorectal Carcinoma)
Procedure, shortened: as §1

[8] = system: HLE (Hepatocellular Carcinoma)
Procedure, shortened: as §1

MSTO-211H (Mesothelioma) = system: MSTO-211H (Mesothelioma)
Procedure, shortened: as §1

[9] = system: NOMO-1 (Acute Myeloid Leukemia)
Procedure, shortened: as §1

[10] = system: PA-TU-8902 (Pancreatic Carcinoma)
Procedure, shortened: as §1

[11] = system: RCC10RGB (Kidney Carcinoma)
Procedure, shortened: as §1

SK-MEL-1 (Melanoma) = system: SK-MEL-1 (Melanoma)
Procedure, shortened: as §1

[12] = system: SLVL (B-Cell Non-Hodgkin's Lymphoma)
Procedure, shortened: as §1

[13] = system: SW948 (Colorectal Carcinoma)
Procedure, shortened: as §1

[14] = system: U-118-MG (Low Grade Glioma)
Procedure, shortened: as §1

[15] = system: WSU-DLCL2 (B-Cell Non-Hodgkin's Lymphoma)
Procedure, shortened: as §1

Row | Compound | combination Emax [1] | combination Emax [2] | combination Emax [3] | combination Emax [4] | combination Emax [5] | combination Emax [6] | combination Emax (EW-22 (Ewing's Sarcoma)) | combination Emax (H4 (Low Grade Glioma)) | combination Emax (HCC38 (Breast Carcinoma)) | combination Emax [7] | combination Emax [8] | combination Emax (MSTO-211H (Mesothelioma)) | combination Emax [9] | combination Emax [10] | combination Emax [11] | combination Emax (SK-MEL-1 (Melanoma)) | combination Emax [12] | combination Emax [13] | combination Emax [14] | combination Emax [15]
1 | Cc1c2c(nn1C)CSCc1cc(n(C)n1)CSc1cc(c3ccccc3c1)OCCCc1c(C(=O)O)n(C)c3c-2c(Cl)ccc13 [AZD5991] + Cn1cnc2c(F)c(Nc3ccc(Br)cc3Cl)c(C(=O)NOCCO)cc21 [Selumetinib] (first compound max 1 µM, 7x7, partner max 3 µM) | 0.91 | 0.874 | 0.237 | 0.903 | 0.511 | 0.311 | 0.566 | 0.456 | 0.33 | 0.523 | 0.326 | 0.264 | 1 | 0.293 | 0.497 | 0.912 | 0.47 | 0.69 | 0.326 | 1
2 | Cc1cc2ncnn2cc1Nc1ncc2c(n1)n(C1CCOCC1)c(=O)n2C [AZD7648] + C=CCn1c(=O)c2cnc(Nc3ccc(N4CCN(C)CC4)cc3)nc2n1-c1cccc(C(C)(C)O)n1 [AZD1775] (first compound max 10 µM, partner max 1 µM) | 0.52 | 0.462 | 0.957 | 0.482 | 0.455 | 0.452 | 0.602 | 0.796 | 0.531 | 0.633 | 0.66 | 0.612 | 0.961 | 0.348 | 0.552 | 0.399 | 0.916 | 0.83 | 0.435 | 0.999
3 | Cc1cc2ncnn2cc1Nc1ncc2c(n1)n(C1CCOCC1)c(=O)n2C [AZD7648] + CCN(CCO)CCCOc1ccc2c(Nc3cc(CC(=O)Nc4cccc(F)c4)[nH]n3)ncnc2c1 [AZD2811] (first compound max 10 µM, 7x7, partner max 1 µM) | 0.262 | 0.433 | 0.74 | 0.47 | 0.345 | 0.25 | 0.698 | 0.711 | 0.287 | 0.528 | 0.433 | 0.469 | 0.606 | 0.309 | 0.264 | 0.3 | 0.687 | 0.737 | 0.317 | 0.476
4 | Cc1cc2ncnn2cc1Nc1ncc2c(n1)n(C1CCOCC1)c(=O)n2C [AZD7648] + CN(C)CCCOc1ccc(-c2ccc3ncc4c(c3c2)n(C2CCOCC2)c(=O)n4C)cn1 [AZD0156] (first compound max 10 µM, 7x7, partner max 1 µM) | 0.222 | 0.322 | 0.496 | 0.249 | 0.374 | 0.155 | 0.467 | 0.448 | 0.233 | 0.317 | 0.31 | 0.33 | 0.461 | 0.227 | 0.3 | 0.347 | 0.404 | 0.545 | 0.277 | 0.345
5 | Cc1cc2ncnn2cc1Nc1ncc2c(n1)n(C1CCOCC1)c(=O)n2C [AZD7648] + C[C@@H]1COCCN1C2=NC(=NC(=C2)C3(CC3)[S@](=N)(=O)C)C4=C5C=CNC5=NC=C4 [AZD6738] (first compound max 10 µM, 7x7, partner max 10 µM) | 0.585 | 0.485 | 0.988 | 0.453 | 0.292 | 0.621 | 0.851 | 0.789 | 0.565 | 0.723 | 0.721 | 0.681 | 0.961 | 0.24 | 0.316 | 0.293 | 0.886 | 0.578 | 0.435 | 0.905
6 | NC1(C(=O)N[C@@H](CCO)c2ccc(Cl)cc2)CCN(c2ncnc3[nH]ccc23)CC1 [Capivasertib] + CC(=O)c1c(C)c2cnc(Nc3ccc(N4CCNCC4)cn3)nc2n(C2CCCC2)c1=O [Palbociclib] (first compound max 10 µM, 7x7, partner max 10 µM) | 0.277 | 0.672 | 0.634 | 0.596 | 0.432 | 0.419 | 0.575 | 0.751 | 0.209 | 0.782 | 0.164 | 0.261 | 0.517 | 0.409 | 0.54 | 0.141 | 0.56 | 0.57 | 0.676 | 1
7 | NC1(C(=O)N[C@@H](CCO)c2ccc(Cl)cc2)CCN(c2ncnc3[nH]ccc23)CC1 [Capivasertib] + CC(C)n1c(=O)n(C)c2cnc3cc(F)c(-c4ccc(OCCCN5CCCCC5)nc4)cc3c21 [AZD1390] (first compound max 10 µM, 7x7, partner max 0.3 µM) | 0.22 | 0.457 | 0.475 | 0.5 | 0.402 | 0.331 | 0.437 | 0.515 | 0.352 | 0.373 | 0.194 | 0.213 | 0.429 | 0.278 | 0.2 | 0.226 | 0.637 | 0.575 | 0.47 | 1
8 | NC1(C(=O)N[C@@H](CCO)c2ccc(Cl)cc2)CCN(c2ncnc3[nH]ccc23)CC1 [Capivasertib] + CCN(CCO)CCCOc1ccc2c(Nc3cc(CC(=O)Nc4cccc(F)c4)[nH]n3)ncnc2c1 [AZD2811] (first compound max 10 µM, 7x7, partner max 1 µM) | 0.309 | 0.55 | 0.737 | 0.592 | 0.449 | 0.381 | 0.78 | 0.58 | 0.359 | 0.587 | 0.33 | 0.379 | 0.735 | 0.348 | 0.292 | 0.292 | 0.667 | 0.769 | 0.603 | 1
9 | NC1(C(=O)N[C@@H](CCO)c2ccc(Cl)cc2)CCN(c2ncnc3[nH]ccc23)CC1 [Capivasertib] + COc1nnc2ccc(N3CCC(c4ccc(OCCN5CCN(C)C(=O)[C@H]5C)cc4)CC3)nn12 [AZD5153] (first compound max 10 µM, 7x7, partner max 1 µM) | 0.502 | 0.787 | 0.771 | 0.768 | 0.504 | 0.503 | 0.834 | 0.744 | 0.461 | 0.813 | 0.389 | 0.258 | 1 | 0.326 | 0.518 | 0.681 | 0.764 | 0.699 | 0.658 | 1
10 | NC1(C(=O)N[C@@H](CCO)c2ccc(Cl)cc2)CCN(c2ncnc3[nH]ccc23)CC1 [Capivasertib] + C[C@@H]1COCCN1C2=NC(=NC(=C2)C3(CC3)[S@](=N)(=O)C)C4=C5C=CNC5=NC=C4 [AZD6738] (first compound max 10 µM, 7x7, partner max 10 µM) | 0.76 | 0.653 | 0.975 | 0.601 | 0.581 | 0.695 | 0.908 | 0.809 | 0.621 | 0.765 | 0.605 | 0.304 | 0.968 | 0.544 | 0.469 | 0.296 | 0.845 | 0.675 | 0.685 | 1
11 | NC1(C(=O)N[C@@H](CCO)c2ccc(Cl)cc2)CCN(c2ncnc3[nH]ccc23)CC1 [Capivasertib] + Cn1cnc2c(F)c(Nc3ccc(Br)cc3Cl)c(C(=O)NOCCO)cc21 [Selumetinib] (first compound max 10 µM, 7x7, partner max 10 µM) | 0.3 | 0.762 | 0.548 | 0.931 | 0.436 | 0.48 | 0.543 | 0.61 | 0.29 | 0.877 | 0.236 | 0.379 | 0.948 | 0.557 | 0.483 | 0.874 | 0.806 | 0.829 | 0.663 | 1
12 | Cc1nc(Nc2ncc(C(=O)Nc3c(C)cccc3Cl)s2)cc(N2CCN(CCO)CC2)n1 [Dasatinib] + CC(=O)Nc1cccc(-n2c(=O)n(C3CC3)c(=O)c3c(Nc4ccc(I)cc4F)n(C)c(=O)c(C)c32)c1 [Trametinib] (first compound max 2 µM, 7x7, partner max 1 µM) | 0.483 | 0.944 | 0.419 | 0.904 | 0.122 | 0.781 | 0.0877 | 0.393 | 0.285 | 0.979 | 0.414 | 0.747 | 0.861 | 0.589 | 0.667 | 0.854 | 0.663 | 0.764 | 0.557 | 0.432
13 | COc1cccc2c1C(=O)c1c(O)c3c(c(O)c1C2=O)C[C@@](O)(C(=O)CO)C[C@@H]3O[C@H]1C[C@H](N)[C@H](O)[C@H](C)O1 [Doxorubicin] + Cc1cc2ncnn2cc1Nc1ncc2c(n1)n(C1CCOCC1)c(=O)n2C [AZD7648] (first compound max 1 µM, 7x7, partner max 10 µM) | 0.958 | 0.654 | 0.943 | 0.697 | 0.368 | 0.562 | 0.947 | 0.818 | 0.555 | 0.918 | 0.812 | 0.813 | 0.966 | 0.372 | 0.29 | 0.593 | 0.975 | 0.52 | 0.715 | 1
